Data: patent US9867794B2, “Regulation of osteopontin” (Pathologica LLC, priority 2007, dated 2018)
Where “and” joins values, the source holds several entries; their conditions need not be identical. Equal entries are not always repeated.

How the values were obtained:
SGNE1 = assay: Microarray analysis of mononuclear cells, SGNE1; type: cell-based, human; settings: for SGNE1 signal +, Average: 10 μM MGBG
Protocol: (§1) Blood samples were obtained from HIV infected patients (N=9) with positive viral load and reduced CD4 counts, and non-HIV infected, healthy controls (N=6). Blood was collected into heparin anticoagulant tubes and mononuclear cells were isolated by Percoll gradient centrifugation. The cells from each sample were split into 2: one-half receives MGBG at concentration of 10 μM and the other half received no treatment. All samples were then cultured overnight in RPMI media with 10% fetal bovine serum at 37° C. under non-adherent conditions. The next day cells were collected by centrifugation, washed one time with PBS, and lysed by resuspension in TRIZOL, and total RNA was prepared according to manufacturer's instructions (Invitrogen, Carlsbad, Calif.). […] The RNA was then amplified for microarray analysis using a 2 cycle amplification protocol according to the manufacturer's instructions (Affymetrix, Santa Clara, Calif.). The amplified RNAs were then hybridized to Human Genome U133 plus 2.0 microarrays (Affymetrix) and expression data was obtained using an Affymetrix scanner and GCOS protocols. Microarray data was analyzed with GeneSpring Microarray Suite. Results were normalized using a set of 100 probe sets determined by the manufacturer to have relatively invariant expression across most cell types.

OPN RNA = assay: OPN production inhibition assay in un-stimulated PBMC cultures, OPN RNA; type: cell-based; settings: 10 μM, harvested 1, 3 and 6 days
Protocol: 10 μM of each drug was added to un-stimulated PBMC cultures at time=0 and cells were harvested 1,3, and 6 days later for quantitative OPN RNA and protein production analysis.

SIVmac251 = assay: SIV-infected, CD8-depleted rhesus macaques treated with MGBG: disease; type: in vivo
Protocol: These monkeys were then treated with MGBG as described.

Human Osteopontin (OPN) = assay: Osteopontin ELISA of PBMC cell culture supernatants (CCS); type: cell-based; settings: for average OPN level in CCS: fifth day
Source text: Peripheral Blood Mononuclear Cells (PBMCs) were isolated from patients diagnosed with Amyotrophic Lateral Sclerosis (ALS), Alzheimer's Disease (AD), Human Immunodeficiency Virus (HIV), Breast Cancer, AIDS Dementia, and healthy donors. The heparinised blood was mixed with equal volumes of sterile phosphate-buffered saline (Ca^++, Mg^++ free PBS) and layered over Percoll (Amersham Biosciences, Piscataway, N.J.) at 1.087 g/ml. The cells were centrifuged and the mononuclear cell layer was collected. The PBMCs were cultured in a concentration of 1×10^6 cells/ml in non-adherent conditions in polypropylene tubes containing complete media (RPMI 1640, 10% fetal bovine serum (HyClone, Logan, Utah), 1% Sodium Pyruvate) and incubated in a 5% CO2, 37° C. humidified incubator. The cells were grown in the presence of 0 μM, 0.1 μM, 1 μM, 10 μM, or 100 μM MGBG plus complete media and the cell culture supernatants (CCS) were isolated on the fifth day and frozen at −20° C. until ready to be tested. Human Osteopontin (OPN) levels were measured with the Human Osteopontin ELISA kit (R&D Systems, Inc., Minneapolis, Minn.) according to manufacturer's instructions. The CCS were tested in duplicate and the Magellan v. 4.0 software (Salzburg, Austria) was used to analyze the results. The average OPN levels (ng/ml) in 0 μM, 0.1 μM, 1 μM, 10 μM, and 100 μM MGBG were measured. The results are depicted in FIGS. 3-7 as a graph comparing diseased sample with normal sample. […] The solid lines represent diseased cells and the dashed lines represent normal cells.

ADA = assay: Quantitative RT-PCR, unsorted mononuclear cells, ADA; type: cell-based, human
Protocol: To evaluate the effect of MGBG on gene expression, blood samples were obtained from patients (N=18, 10 HIV-infected and 8 Healthy Controls). Mononuclear cells were isolated via Percoll gradient centrifugation. The cells were split into two tubes, one treated with 10 μM of MGBG and the other non-treated. The cells were then cultured overnight in RPMI media plus 10% fetal bovine serum at 37 C under non-adherent conditions, collected, lysed using Trizol solution, and total RNA prepared according to manufacturer's instructions (Invitrogen, Carlsbad, Calif.).
Approximately 200 ng of total RNA prepared from each sample was converted to cDNA using the First Strand cDNA Synthesis Kit for RT-PCR [AMV] kit (Roche Applied Diagnostics, Indianapolis, Ind.) according to manufacturer's instructions. Around 5 ng of cDNA sample was then used for PCR performed on a LightCycler (Roche Applied Diagnostics, Indianapolis, Ind.) using the LightCycler FastStart DNA Master SYBR Green I kit. PCR conditions are as follows: 1 cycle of denaturation at 95° C. for 10 minutes, followed by 45 cycles of 95° C. for 10 seconds, 68° C. for 10 seconds, and 72° C. for 16 seconds.
The sequences of gene-specific primers evaluated are listed below. All samples were also amplified with the human β-actin LightCycler-Primer set (Roche Diagnostics).

FCGR1a = assay: Microarray analysis of mononuclear cells, FCGR1a; type: cell-based, human; settings: for FCGR1a signal +, Average: 10 μM MGBG
Protocol: as §1

Osteopontin = assay: Macrophage Osteopontin production in migration assays; type: cell-based; settings: 10 μM MGBG; from >200 ng/mL without drug
Protocol: Additionally, cells being targeted by MGBG were investigated. […] To elucidate the effects of MGBG and OPN on cell motility, migration assays were conducted. MGBG at 10 μM inhibited macrophage Osteopontin production from >200 ng/mL to nondetectable levels while simultaneously inhibiting HeLa cell invasion into a Matrigel matrix.

[1] = average of control samples (C6-, M6-177)
[2] = 10 μM, individual donor samples
[3] = presence of 10 μM MGBG overnight, individual donor samples
[4] = 10 μM MGBG, all unsorted samples

## CC(/C=N/NC(=N)N)=N\NC(=N)N [MGBG, 1,1′ [methylethanediylidene]dinitrilodiguanidine]
SGNE1; average of HIV samples
  SGNE1 signal +, Average: 23
SGNE1; [1]
  SGNE1 signal +, Average: 13
SGNE1; [2]
  SGNE1 fold change, ON/MGBG ratio (down-regulation): 3.3 fold and 7.4 fold and 1.9 fold and 14.4 fold and 53.3 fold and 4.7 fold and 9.3 fold and 58.8 fold and 2.4 fold and 3.0 fold and 45.5 fold and 159.8 fold and 10.1 fold and 63 fold and 0.8 fold
SGNE1; of the 15 samples evaluated
  samples with 2 fold or greater reductions in SGNE1 signal: 13
SGNE1; [3]
  SGNE1 signal +: 17 and 7 and 10 and 13 (3×) and 12 and 2 (2×) and 3 and 45 and 14 and 8 and 79 and 44
OPN RNA
  OPN RNA expression: inhibited in a time dependant manner
SIVmac251; 4 doses of MGBG, compared to non-treated
  SIV-associated macrophages in the frontal cortex: absence of SIV-associated macrophages
SIVmac251; FIG. 9, treated infected macaques
  macrophage infiltration in brains: no pathology was observed
SIVmac251; both trials, treated animals
  illness (AIDS and dementia): none of the treated animals became ill
SIVmac251; first trial, 200, 300, 400 mg/m^2 weekly, 2 treated animals
  SIVE or DRG infiltration: no indications of SIVE or DRG infiltration
SIVmac251; second trial, bi-weekly 250 mg/m^2, 2 treated animals
  SIV disease: no evidence for SIV disease
Human Osteopontin (OPN); AD PBMCs (n=1), 0.1 μM MGBG
  average OPN level in CCS: 0.477 ng/mL
Human Osteopontin (OPN); AD PBMCs (n=1), 1 μM MGBG
  average OPN level in CCS: 0.201 ng/mL
Human Osteopontin (OPN); AD PBMCs (n=1), 10 μM MGBG
  average OPN level in CCS: 0.136 ng/mL
Human Osteopontin (OPN); AD PBMCs (n=1), 100 μM MGBG
  average OPN level in CCS: 0 ng/mL
Human Osteopontin (OPN); AIDS Dementia PBMCs (AIRL2005-374), 10 μM MGBG
  average CCS OPN value: 0.8905
Human Osteopontin (OPN); ALS PBMCs (n=2), 10 μM MGBG
  average CCS OPN value: 17.669
Human Osteopontin (OPN); HIV PBMCs (n=2), 0.1 μM MGBG
  average OPN level in CCS: 11.833 ng/mL
Human Osteopontin (OPN); HIV PBMCs (n=2), 1 μM MGBG
  average OPN level in CCS: 3.481 ng/mL
Human Osteopontin (OPN); HIV PBMCs (n=2), 10 μM MGBG
  average OPN level in CCS: 0.447 ng/mL
Human Osteopontin (OPN); HIV PBMCs (n=2), 100 μM MGBG
  average OPN level in CCS: 0 ng/mL
Human Osteopontin (OPN); breast cancer PBMCs (n=3), 0.1 μM MGBG
  average OPN level in CCS: 20.89 ng/mL
Human Osteopontin (OPN); breast cancer PBMCs (n=3), 1 μM MGBG
  average OPN level in CCS: 8.87 ng/mL
Human Osteopontin (OPN); breast cancer PBMCs (n=3), 10 μM MGBG
  average OPN level in CCS: 2.12 ng/mL
Human Osteopontin (OPN); breast cancer PBMCs (n=3), 100 μM MGBG
  average OPN level in CCS: 0.84 ng/mL
Human Osteopontin (OPN); healthy/normal PBMCs (n=3), 0.1 μM MGBG
  average OPN level in CCS: 9.69 ng/mL
Human Osteopontin (OPN); healthy/normal PBMCs (n=3), 1 μM MGBG
  average OPN level in CCS: 4.85 ng/mL
Human Osteopontin (OPN); healthy/normal PBMCs (n=3), 10 μM MGBG
  average OPN level in CCS: 1.07 ng/mL
Human Osteopontin (OPN); healthy/normal PBMCs (n=3), 100 μM MGBG
  average OPN level in CCS: 0.14 ng/mL
ADA; 10 μM MGBG overnight, untreated vs treated, negative = fold reduction, individual samples
  Fold change ADA by QRT-PCR: 16.80 fold and 4.69 fold and 18.77 fold and 2.33 fold and 13.00 fold and 3.34 fold and 5.90 fold and 10.06 fold and 7.52 fold and 4.23 fold and 7.21 fold and 1.38 fold and −0.73 fold and 6.68 fold and 3.01 fold and 3.76 fold and 1.16 fold and 7.16 fold
ADA; [4]
  Fold change ADA, AVERAGE: 6.5 fold
  Fold change ADA, MAX: 18.8 fold
  Fold change ADA, MIN: −0.7 fold
ADA; share of samples, 10 μM MGBG
  ADA % >2 fold Changed: 83%
ADA; upregulated in all but one sample
  ADA regulation by MGBG: strongly induced
FCGR1a; average of HIV samples
  FCGR1a signal +, Average: 439
FCGR1a; [1]
  FCGR1a signal +, Average: 608
FCGR1a; [2]
  FCGR1A fold change, ON/MGBG ratio (down-regulation): 9.2 fold and 1.3 fold and 0.3 fold (3×) and 0.9 fold (2×) and 0.1 fold and 4.3 fold and 2.7 fold and 2.5 fold and 2.2 fold and 0.4 fold and 12.3 fold and 1.0 fold
FCGR1a; HIV samples
  samples with FCGR1A down-regulated more than 2 fold: 6 of 9
FCGR1a; [3]
  FCGR1a signal +: 415 and 461 and 59 and 800 and 1561 and 136 and 51 and 612 and 53 and 1362 and 1435 and 264 and 33 and 14 and 347
Osteopontin
  macrophage Osteopontin production: nondetectable
